Read-outs that look alike come from different tables or passages of the source.
Legend:
[1] = test system: cultured neurons and astrocytes; details: cited from earlier work
[2] = test system: intracerebral hemorrhage (“ICH”) mouse model; set-up: species or system C57BL/6J mice; details: in vivo
[3] = test system: MMP-9 (metalloproteinase-9); set-up: species or system C57BL/6J mice; details: mouse, in vivo

Row | Substance | kill of cultured neurons and astrocytes [1] | behavioral and neurological deficits following induction of ICH (overall) [2] | circling behavior [2] | sensory response component of 28-point scale [2] | neurofunction (pilot studies) ([2]; 16 mg/kg) | sensory response component of 28-point scale ([2]; 16 mg/kg) | sensory response component of 28-point scale ([2]; 32 mg/kg) | MMP9 serum levels [3]
1 | Hemin | 60%-70% | – | – | – | – | – | – | –
2 | PHGGGWGQPHGGGWGQ [SEQ ID NO:3] | – | efficacious at diminishing the behavioral and neurological deficits | exception | improved at statistically significant levels | improved neurofunction | improved at statistically significant levels | improved at statistically significant levels | diminished

— patent US11000571B2 (priority 2016, dated 2021)
